Here are results for five compounds from patent US20210070748A1, “INHIBITORS OF BRUTONS TYROSINE KINASE” (Pharmacyclics LLC, priority 2015, published 2021).

Where two headings read alike, the source gives them in different places.

A word on the IC50: it is the concentration needed to halve the response being measured.

What all share (type): biochemical
One assay deals with SRC (Homo sapiens, UniProt P12931). Put plainly: Inhibition of a panel of kinases, in vitro HotSpot kinase assay: SRC. The note with it: for IC50: 1 μM ATP; for SRC* IC50 relative to Btk IC50 value: fold relative to Btk IC50 value. The method, then: (§1) The degree of inhibition of a panel of kinases is determined using the in vitro HotSpot kinase assay (purified enzymes, ^33P-ATP, an appropriate substrate and 1 μM ATP).

The target of the next assay is T1, TEC (Homo sapiens, UniProt P42680).
T1 sequence (P42680 1-631): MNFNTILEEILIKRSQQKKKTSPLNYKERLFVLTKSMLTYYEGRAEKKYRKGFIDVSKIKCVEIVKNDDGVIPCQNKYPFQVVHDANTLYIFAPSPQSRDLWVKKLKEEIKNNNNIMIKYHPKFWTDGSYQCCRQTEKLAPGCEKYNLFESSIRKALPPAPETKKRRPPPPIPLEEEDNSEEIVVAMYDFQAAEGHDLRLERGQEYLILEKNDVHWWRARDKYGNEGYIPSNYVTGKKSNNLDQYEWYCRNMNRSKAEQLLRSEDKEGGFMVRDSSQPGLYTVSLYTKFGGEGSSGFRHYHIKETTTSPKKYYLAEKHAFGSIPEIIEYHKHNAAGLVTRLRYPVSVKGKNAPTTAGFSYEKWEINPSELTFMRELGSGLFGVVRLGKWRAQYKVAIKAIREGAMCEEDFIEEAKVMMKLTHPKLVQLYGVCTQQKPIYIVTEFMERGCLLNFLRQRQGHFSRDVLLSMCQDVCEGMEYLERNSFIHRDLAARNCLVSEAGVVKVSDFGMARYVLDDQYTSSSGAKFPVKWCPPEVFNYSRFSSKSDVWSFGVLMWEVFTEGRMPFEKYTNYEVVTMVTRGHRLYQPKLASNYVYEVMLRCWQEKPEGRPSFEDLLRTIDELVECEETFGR
Put plainly: Inhibition of a panel of kinases, in vitro HotSpot kinase assay: TEC. The settings on record: for IC50: 1 μM ATP; for TEC* IC50 relative to Btk IC50 value: fold relative to Btk IC50 value. The method, then: as §1

Another assay deals with EGFR (Homo sapiens, UniProt P00533). The assay is described as follows: Inhibition of a panel of kinases, in vitro HotSpot kinase assay: EGFR. The settings on record: for IC50: 1 μM ATP; for EGFR* IC50 relative to Btk IC50 value: fold relative to Btk IC50 value. The method, then:
as §1

The target in a further assay is LCK (Homo sapiens, UniProt P06239). The assay is described as follows: Inhibition of a panel of kinases, in vitro HotSpot kinase assay: LCK. The settings on record: for IC50: 1 μM ATP, read-out: IC50 LCK; for LCK* IC50 relative to Btk IC50 value: fold relative to Btk IC50 value.
Another assay concerns the target T2, BTK-WT (Homo sapiens, UniProt Q06187).
T2 construct: purified from insect cells as a full-length construct containing an N-terminal 6X-His tag; His6 (N); made in house; host or cells: insect cells (baculovirus Sf21 in Method B)
Put plainly: Btk in vitro inhibitory activity (one of Method A TR-FRET, Method B electrophoretic mobility shift, Method C radiometric filter binding).

Where [1] appears, read: Table 13, A compounds, read-out: IC50 BTK-WT.

Sequence of SRC (P12931 whole entry): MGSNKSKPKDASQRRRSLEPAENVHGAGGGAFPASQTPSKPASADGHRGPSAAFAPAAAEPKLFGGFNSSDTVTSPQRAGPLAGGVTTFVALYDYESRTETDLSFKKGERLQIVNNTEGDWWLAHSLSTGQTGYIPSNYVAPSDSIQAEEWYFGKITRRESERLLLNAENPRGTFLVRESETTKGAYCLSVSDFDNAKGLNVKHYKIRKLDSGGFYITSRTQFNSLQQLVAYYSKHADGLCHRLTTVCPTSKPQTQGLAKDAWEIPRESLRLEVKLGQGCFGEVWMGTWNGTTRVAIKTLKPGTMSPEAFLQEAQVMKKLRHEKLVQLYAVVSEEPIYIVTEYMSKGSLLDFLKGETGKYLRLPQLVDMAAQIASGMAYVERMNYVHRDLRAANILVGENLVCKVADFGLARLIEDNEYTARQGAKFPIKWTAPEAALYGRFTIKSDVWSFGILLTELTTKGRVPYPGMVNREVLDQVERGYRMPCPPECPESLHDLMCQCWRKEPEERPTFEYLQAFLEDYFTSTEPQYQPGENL
Sequence of EGFR (P00533 25-1210): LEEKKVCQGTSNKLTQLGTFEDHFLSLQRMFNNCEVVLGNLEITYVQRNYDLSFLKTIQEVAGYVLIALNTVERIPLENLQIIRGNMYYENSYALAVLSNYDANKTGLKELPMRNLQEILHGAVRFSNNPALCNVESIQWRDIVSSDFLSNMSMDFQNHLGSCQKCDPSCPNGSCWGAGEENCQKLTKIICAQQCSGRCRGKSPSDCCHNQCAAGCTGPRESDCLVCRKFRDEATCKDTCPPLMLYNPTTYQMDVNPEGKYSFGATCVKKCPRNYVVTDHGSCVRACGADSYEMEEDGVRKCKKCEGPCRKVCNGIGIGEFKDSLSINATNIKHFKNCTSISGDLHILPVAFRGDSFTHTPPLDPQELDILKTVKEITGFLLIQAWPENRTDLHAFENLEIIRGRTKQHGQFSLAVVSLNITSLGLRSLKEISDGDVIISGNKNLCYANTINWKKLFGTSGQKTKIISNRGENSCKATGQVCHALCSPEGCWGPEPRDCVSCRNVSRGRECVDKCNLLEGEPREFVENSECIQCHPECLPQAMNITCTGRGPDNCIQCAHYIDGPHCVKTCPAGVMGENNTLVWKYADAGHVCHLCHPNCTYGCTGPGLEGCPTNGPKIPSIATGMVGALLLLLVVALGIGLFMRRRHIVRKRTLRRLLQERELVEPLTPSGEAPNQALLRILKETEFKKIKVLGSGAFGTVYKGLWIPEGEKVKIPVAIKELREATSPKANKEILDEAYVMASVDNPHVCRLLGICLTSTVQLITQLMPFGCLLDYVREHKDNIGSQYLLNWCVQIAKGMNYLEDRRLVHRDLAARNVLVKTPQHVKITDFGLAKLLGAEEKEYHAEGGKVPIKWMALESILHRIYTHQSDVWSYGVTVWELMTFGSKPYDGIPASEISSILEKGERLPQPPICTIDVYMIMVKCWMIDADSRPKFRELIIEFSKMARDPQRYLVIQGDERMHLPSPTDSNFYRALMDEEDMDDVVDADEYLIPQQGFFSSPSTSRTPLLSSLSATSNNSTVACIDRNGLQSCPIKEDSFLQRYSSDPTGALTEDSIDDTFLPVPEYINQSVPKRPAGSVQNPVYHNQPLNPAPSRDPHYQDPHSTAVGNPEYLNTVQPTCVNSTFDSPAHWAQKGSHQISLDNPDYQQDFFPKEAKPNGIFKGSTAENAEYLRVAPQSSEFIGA
Sequence of LCK (P06239 whole entry): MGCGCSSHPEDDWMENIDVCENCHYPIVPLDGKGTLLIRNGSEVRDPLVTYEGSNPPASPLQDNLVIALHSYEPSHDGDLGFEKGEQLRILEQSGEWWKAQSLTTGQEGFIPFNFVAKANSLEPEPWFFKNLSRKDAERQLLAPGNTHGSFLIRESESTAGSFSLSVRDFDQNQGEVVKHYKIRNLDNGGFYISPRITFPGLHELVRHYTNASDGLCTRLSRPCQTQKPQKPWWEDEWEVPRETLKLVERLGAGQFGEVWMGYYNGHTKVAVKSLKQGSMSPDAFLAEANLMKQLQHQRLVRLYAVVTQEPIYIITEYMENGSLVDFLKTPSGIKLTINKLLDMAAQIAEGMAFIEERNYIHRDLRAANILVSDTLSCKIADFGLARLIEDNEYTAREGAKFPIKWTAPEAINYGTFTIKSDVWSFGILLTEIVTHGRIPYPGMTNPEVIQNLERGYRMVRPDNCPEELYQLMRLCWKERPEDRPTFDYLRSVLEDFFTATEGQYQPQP
T2 sequence (Q06187 whole entry): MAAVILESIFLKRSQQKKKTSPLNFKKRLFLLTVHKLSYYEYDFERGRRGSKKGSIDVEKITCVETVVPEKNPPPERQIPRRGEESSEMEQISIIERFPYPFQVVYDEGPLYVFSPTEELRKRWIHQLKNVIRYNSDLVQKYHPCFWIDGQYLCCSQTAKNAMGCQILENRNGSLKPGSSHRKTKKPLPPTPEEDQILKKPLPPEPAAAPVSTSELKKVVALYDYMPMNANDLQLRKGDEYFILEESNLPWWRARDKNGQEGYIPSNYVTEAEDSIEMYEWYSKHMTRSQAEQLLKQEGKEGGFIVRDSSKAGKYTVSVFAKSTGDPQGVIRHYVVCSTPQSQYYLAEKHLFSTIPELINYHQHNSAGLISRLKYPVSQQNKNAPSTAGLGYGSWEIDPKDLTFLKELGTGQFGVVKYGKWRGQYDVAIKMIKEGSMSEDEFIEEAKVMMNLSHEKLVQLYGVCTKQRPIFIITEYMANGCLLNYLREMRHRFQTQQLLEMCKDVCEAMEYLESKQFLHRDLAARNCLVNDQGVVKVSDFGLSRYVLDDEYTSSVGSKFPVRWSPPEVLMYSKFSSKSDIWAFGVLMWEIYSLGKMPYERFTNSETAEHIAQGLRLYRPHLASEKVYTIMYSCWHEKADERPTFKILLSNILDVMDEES

On to `C[C@@H]1[C@H](NC(=O)N(C)C)CCCN1c1cnc(C(N)=O)c(Nc2ccc(C(=O)N3CCN(C)CC3)cc2)n1` [Example A-98, 5-[(2R,3R)-3-[(dimethylcarbamoyl)amino]-2-methylpiperidin-1-yl]-3-{[4-(4-methylpiperazine-1-carbonyl)phenyl]amino}pyrazine-2-carboxamide], for which the IC50 on SRC (Table 13, A compounds) was 100 to 1000 nM; on TEC (Table 13, A compounds) it was 100 to 1000 nM; on EGFR (Table 13, A compounds) it was 1000 to 10000 nM; at LCK (Table 13, A compounds) it was 100 to 1000 nM; on BTK-WT (setting [1]), at most 10 nM.
With `C=CC(=O)N1CCC[C@@H](Nc2cnc(C(N)=O)c(Nc3ccc(C4CCN(C5CCCC5)CC4)cc3)n2)C1` [Example C-84, (R)-5-(1-acryloylpiperidin-3-ylamino)-3-(4-(1-cyclopentylpiperidin-4-yl)phenylamino)pyrazine-2-carboxamide], the IC50 on SRC (Table 15, C compounds) was 10 to 100 nM; at TEC (Table 15, C compounds), at most 10 nM; against EGFR (Table 15, C compounds), at most 10 nM; on LCK (Table 15, C compounds) it was 10 to 100 nM; at BTK-WT (Table 15, C compounds, read-out: IC50 BTK-WT), at most 10 nM.
On to `C[C@@H]1[C@H](NC(=O)c2ccc(C3CC3)cc2)CCCN1c1cnc(C(N)=O)c(Nc2cnn(C3CC3)c2)n1` [Example A-205, 3-[(1-cyclopropyl-1H-pyrazol-4-yl)amino]-5-[(2R,3R)-3-(4-cyclopropylbenzamido)-2-methylpiperidin-1-yl]pyrazine-2-carboxamide], for which the “SRC* IC50 relative to Btk IC50 value” on SRC came to 40x. Further, the “TEC* IC50 relative to Btk IC50 value” on TEC amounted to 3x. For the same compound, the “EGFR* IC50 relative to Btk IC50 value” at EGFR worked out at 730x. Further, at LCK, the “LCK* IC50 relative to Btk IC50 value” stood at 102x. In addition, the IC50 at BTK-WT (read-out: BTK-WT IC50) is below 10 nM.
With `Cc1nn(C)cc1Nc1nc(N2CCC[C@@H](NC(=O)c3ccc(C4CC4)cc3)[C@H]2C)cnc1C(N)=O` [Example A-192, 5-((2R,3R)-3-(4-cyclopropylbenzamido)-2-methylpiperidin-1-yl)-3-(1,3-dimethyl-1H-pyrazol-4-ylamino)pyrazine-2-carboxamide], the IC50 on SRC (Table 13, A compounds) was above 10000 nM; on TEC (Table 13, A compounds), 1000 to 10000 nM; at EGFR (Table 13, A compounds), 1000 to 10000 nM; on LCK (Table 13, A compounds), above 10000 nM; on BTK-WT (setting [1]), 10 to 100 nM.
Regarding `C[C@@H]1[C@H](NC(=O)c2ccc(C3CC3)cc2)CCCN1c1cnc(C(N)=O)c(Nc2cnn(C(F)F)c2)n1` [Example A-198, 5-[(2R,3R)-3-(4-cyclopropylbenzamido)-2-methylpiperidin-1-yl]-3-{[1-(difluoromethyl)-1H-pyrazol-4-yl]amino}pyrazine-2-carboxamide], the “SRC* IC50 relative to Btk IC50 value” on SRC stood at 69x. Besides, the “TEC* IC50 relative to Btk IC50 value” on TEC is recorded as 3x. For the same compound, on EGFR, the “EGFR* IC50 relative to Btk IC50 value” came out at 1276x. For the same compound, the “LCK* IC50 relative to Btk IC50 value” on LCK is on record as 112x. In addition, on BTK-WT (read-out: BTK-WT IC50), the IC50 is below 10 nM.
